Publication PMC9456187, “The Ambivalence of Connexin43 Gap Peptides in Cardioprotection of the Isolated Heart against Ischemic Injury” (International Journal of Molecular Sciences, 2022)

Columns and labels:
[1] = test system: ischemic preconditioning (IPC) cardioprotection; settings: cited from earlier work; for Inhibition of the triggering step of IPC (in words): ref [21],[40],[41],[42],[43]; for Effect on cardioprotection by preconditioning (in words): ref [21]
Description: IPC is a powerful and robust cardioprotective mechanism. In the current study, we wanted to examine if IPC in combination with Gap peptides would interfere with infarct size limitation. […] Peptides were added prior to and during three cycles of ischemic preconditioning pretreatment before prolonged global ischemia but not at the following reperfusion. When combining Gap26 and ischemic preconditioning, the protection agains ... || Through the years, multiple attempts have been made to use cardioprotection by IPC or pharmacological interventions that mimic IPC to reduce infarct size in the clinic. So far, this has been without success when carried through to large phase 3 clinical studies. Adaption to stress is a beneficial endogenous mechanism closely related to injury mechanisms.

[2] = test system: isolated perfused male rat hearts; assay: Left ventricular function (LVDP, EDP) after ischemia-reperfusion, Langendorff-perfused heart; set-up: species or system male Wistar rat; settings: % recovery of initial preischemic LVDP after 30 min ischemia and 120 min reperfusion; peptide during IPC
Description: (§1) All experiments were approved by the Norwegian animal research authority and were performed according to the Norwegian Animal Welfare Act and the European Convention for the Protection of Vertebrate Animals Used for Experimental and other Scientific Purposes (ETS No. 123 and 2010/63/EU). Male Wistar rats 250–350 g (Charles River, UK) were anesthetized with pentobarbital (100 mg/kg i.p.) and heparinized (300 IU i.p.), the chest opened and the heart removed.
(§2) The heart was immediately submerged in an ice-cold buffer and quickly mounted on the perfusion apparatus, where it was perfused with the Krebs–Henseleit buffer (gassed with 5% CO2 and 95%O2) in a constant pressure Langendorff setup (100 cm H2O). The temperature was kept at 37 °C during the whole experiment by keeping the heart submerged in a heated buffer. Left ventricular pressure was recorded using a balloon catheter connected to a pressure transducer. Coronary flow was measured by timed collections of perfusate.
(§3) Hearts were stabilized for 15 min, then either subjected to 30 min of global ischemia and 2 h of reperfusion or preconditioning with 3 cycles of 5 min of ischemia and reperfusion (IPC) before 30 min of global ischemia and 2 h of reperfusion. Care was taken to secure controls corresponding in time and rat batch with the intervention experiments. […]

[3] = test system: isolated perfused male rat hearts; assay: Coronary flow in isolated perfused heart; set-up: species or system male Wistar rat; settings: before 30 min ischemia; Gap peptide in buffer
Description: as §1, §2, §3

[4] = test system: isolated perfused male rat hearts (connexin43 hemichannels); assay: Infarct size (TTC staining) after global ischemia-reperfusion, Langendorff-perfused heart; set-up: species or system male Wistar rat
Description: as §1, §2
Hearts were stabilized for 15 min, then either subjected to 30 min of global ischemia and 2 h of reperfusion or preconditioning with 3 cycles of 5 min of ischemia and reperfusion (IPC) before 30 min of global ischemia and 2 h of reperfusion. Care was taken to secure controls corresponding in time and rat batch with the intervention experiments.
Connexin mimetic peptides Gap19 (amino acid sequence KQIEKKFK), Gap26 (VCYDKSFPISHVR) and Gap27 (SRPTEKTIFII) from Pepnome Inc., Hong Kong, China, were dissolved in the Krebs–Henseleit buffer to a final concentration of 0.5 µM [7, 12] and used in experiments the same day. Amino-acid sequences were confirmed by mass spectrometry analysis. The hearts that were subject to ischemia without IPC received the peptides prior to and after 30 min global ischemia. The hearts that were subject to IPC received the peptides during the preconditioning cycles only prior to 30 min ischemia.
At the end of reperfusion, the heart was immediately cut off caudal to the atria yielding only ventricular tissue. The ventricular tissue was then weighed in its wet state and immediately frozen to −18 °C for 24 h, sliced into four or five 2 mm thick slices and dyed with 1% 2, 3, 5 triphenyl tetrazolium chloride (TTC) (Sigma-Aldrich Co., Ltd., St. Louis, MI, USA) in Dulbecco’s phosphate buffered saline (PBS) (Sigma-Aldrich Co.). Each heart was submerged in 50mL of 1% TTC in PBS for 20 min at 37 °C in a light-free environment. Thereafter the slices were quickly dried and fixed in 4% formaldehyde for 30 min before they were scanned by a high-resolution scanner; the images were then blind-coded. Infarcts were manually traced, and the area of infarct relative to the whole area was quantified using Image J software. […]

[5] = test system: subsarcolemmal mitochondria isolated from perfused rat hearts; assay: High-resolution respirometry of isolated subsarcolemmal mitochondria; format: biochemical, male Wistar rat; settings: pH 7.4, 37 °C; for Oxygen flux, +Oligomycin: oligomycin 4 µg/mL; for Oxygen flux, +Oligomycin / Oxygen flux, +ADP 50 µM / Oxygen flux, Glutamate + Maleate / Oxygen flux, OXPHOS Saturating +ADP 2.5 mM / Oxygen flux, State 4 (LEAK ATP): mean ± SEM, n = 3; for Oxygen flux, +ADP 50 µM / Oxygen flux, Glutamate + Maleate / Oxygen flux, OXPHOS Saturating +ADP 2.5 mM / Oxygen flux, State 4 (LEAK ATP): 10 min preincubation on ice
Description: as §1
Hearts were control perfused or subjected to IPC. Isolation of mitochondria was performed using the procedure described by Palmer et al. (1977) with minor modifications. All procedures were performed on ice or at 4 °C. Briefly, the ventricles were removed, weighed and placed in the buffer containing (in mM): 100 KCl, 50 MOPS, 1 EGTA, 5 MgSO4, 1 ATP and pH 7.4. Heart tissue was minced with scissors in a small volume of buffer. Buffer plus bovine serum albumin BSA (2 mg/mL) were added, and the tissue suspension was homogenized with Polytron for 7 s and thereafter with two strokes of a Potter-Elvehjem homogenizer (Glas-Col, Terre Haute, IN, USA) and centrifuged at 590× g for 10 min at 4 °C. The supernatant was filtered through a nylon net (NITEX 300 lm; Yulee, FL, USA). Supernatants now containing mitochondria mainly from the subsarcolemmal compartment (SSM fraction) were centrifuged at 3000× g for 10 min at 4 °C, and the SSM pellet was again resuspended in the buffer plus BSA and centrifuged at 3000× g for 10 min. The pellet was resuspended in the buffer containing (in mM): 100 KCl, 50 MOPS 50, 0.5 EGTA and pH 7.4 and centrifuged at 3000× g for 10 min at 4 °C. The final pellet was resuspended in this buffer and left on ice for 30 min for stabilization of membranes.
Measurement of mitochondrial oxygen consumption was performed in an oxygraph (Oxygraph 2k; Oroboros Instruments, Innsbruck, Austria) using a respiration medium [100 KCl; 50 MOPS; 1 EGTA; 5 KH2PO4 (all in mM); BSA 1 mg mL) and pH = 7.4] in a closed 2 mL chamber at 37 °C. Glutamate (5.0 mM) and malate (2.5 mM) were used as substrates. After obtaining stable respiration O2 flux (nmol O2/min/mL), ADP was added to a final concentration of 50 µM to measure coupled respiration. After depletion of ADP and stable respiration, a saturating ADP amount (2.5 mM) was added to obtain max coupled respiration (OxPhos). Finally, oligomycin was added to a final concentration of 4 µg/mL to inhibit the ATP-synthase, and a stable state oligomycin measurement was recorded. At the end of the experiments, protein content was estimated by the Bradford method, and citrate synthase activity was measured. Results of O2 flux measurements (nmol O2/min) were normalized to citrate synthase activity (IU µmol/min) in the sample. Phosphate/oxygen ratio (P/O ratio) was calculated as ADP phosphorylated divided by oxygen molecules consumed. The respiratory control ratio (RCR) was calculated as the ratio between max state 3 (OxPhos) and […].
In order to assess the effect of Gap26 and Gap27 on mitochondrial respiration, peptides in concentrations 0.5, 5.0 and 50.0 µM were added to the isolated mitochondria. After 10 min preincubation on ice 60 µL of the suspension was added to the oxygraphy, and peptide concentration was adjusted to the new volume, so the final peptide concentration was the same during the whole experiment. Each subgroup consisted of samples from 3–4 hearts, and care was taken to minimize variability by testing the different Gap peptides and concentrations concomitantly in every heart at the same time using multiple respiratory chambers.
Statistical analysis was performed by SigmaPlot version 14.5 (Systate Software Inc. Chicago, IL, USA) using one-way or two-way ANOVA followed by the Holms Sidac method as a post hoc test when appropriate. Results are presented as mean ± SEM except for binding kinetics, which is presented as mean ± SD (n = 3–4).

[6] = control hearts (crt), peptide 0.5 µM
[7] = control hearts (crt), peptide 5 µM
[8] = control hearts (crt), peptide 50 µM

Molecule: CC(=O)Oc1ccccc1C(=O)O [acetylsalicylic acid (aspirin), acetylsalicylic acid]
- Inhibition of the triggering step of IPC (in words) [1]: inhibit the triggering step of IPC

Molecule: COc1ccc2[nH]cc(CCNC(C)=O)c2c1 [melatonin]
- Inhibition of the triggering step of IPC (in words) [1]: inhibit the triggering step of IPC

Molecule: CCCN(CCC)S(=O)(=O)c1ccc(C(=O)O)cc1 [probenecid]
- Effect on cardioprotection by preconditioning (in words) [1]: could inhibit this effect

Molecule: O=c1[nH]c(=O)c2[nH]c(=O)[nH]c2[nH]1 [uric acid]
- Inhibition of the triggering step of IPC (in words) [1]: inhibit the triggering step of IPC
- Effect on cardioprotection by preconditioning (in words) [1]: blocks cardioprotection by preconditioning

Molecule: KQIEKKFK [Gap19]
- Recovery of LVDP, Gap peptide combined with IPC (in words) [2]: significant increase in % recovery of LVDP (p < 0.05)
- Coronary flow at baseline (in words) [3]: significantly reduced with Gap19 compared to control (p < 0.05)
- Cardioprotection / infarct size reduction when combined with IPC (in words) ([4]; Gap peptide prior to and during three IPC cycles, not at reperfusion): protection was maintained
- Infarct size in % of untreated control infarcts, Gap peptide combined with IPC ([4]; IPC 3 cycles of 5 min ischemia/reperfusion, Gap peptide 0.5 µM (Figure 1 legend: 0.05 µM) only during preconditioning cycles before 30 min global ischemia, 2 h reperfusion, TTC, mean ± SEM): 60.9 ± 5.1%
- Infarct size reduction (in words) ([4]; no IPC, Gap peptide immediately prior to ischemia and first 10 min of reperfusion): reducing infarct size to the same degree as ischemic preconditioning
- Infarct size in % of untreated control infarcts ([4]; no IPC, isolated rat heart, 37 °C, Gap peptide 0.5 µM (Figure 1 legend: 0.05 µM) prior to and after 30 min global ischemia, 2 h reperfusion, TTC, mean ± SEM): 76.2 ± 2.7%
- Mitochondrial respiration / average oxygen flux, RCR or P/O ratio (in words) ([5]; Gap peptides 0.5, 5, 50 µM added in vitro to isolated mitochondria from control or IPC hearts, glutamate + malate): not able to detect significant change
- Oxygen flux, +Oligomycin ([5]; IPC hearts, peptide 0.5 µM): 37.8 ± 7.4 nmol O2 (µmol IU CS Activity)^−1
- Oxygen flux, +ADP 50 µM ([5]; IPC hearts, peptide 0.5 µM): 69.8 ± 28.0 nmol O2 (µmol IU CS Activity)^−1
- Oxygen flux, Glutamate + Maleate ([5]; IPC hearts, peptide 0.5 µM): 15.2 ± 4.2 nmol O2 (µmol IU CS Activity)^−1
- Oxygen flux, OXPHOS Saturating +ADP 2.5 mM ([5]; IPC hearts, peptide 0.5 µM): 92.5 ± 25.1 nmol O2 (µmol IU CS Activity)^−1
- Oxygen flux, State 4 (LEAK ATP) ([5]; IPC hearts, peptide 0.5 µM): 21.2 ± 5.3 nmol O2 (µmol IU CS Activity)^−1
- Oxygen flux, +Oligomycin ([5]; IPC hearts, peptide 5 µM): 39.0 ± 3.7 nmol O2 (µmol IU CS Activity)^−1
- Oxygen flux, +ADP 50 µM ([5]; IPC hearts, peptide 5 µM): 71.4 ± 7.5 nmol O2 (µmol IU CS Activity)^−1
- Oxygen flux, Glutamate + Maleate ([5]; IPC hearts, peptide 5 µM): 15.9 ± 1.7 nmol O2 (µmol IU CS Activity)^−1
- Oxygen flux, OXPHOS Saturating +ADP 2.5 mM ([5]; IPC hearts, peptide 5 µM): 98.3 ± 10.5 nmol O2 (µmol IU CS Activity)^−1
- Oxygen flux, State 4 (LEAK ATP) ([5]; IPC hearts, peptide 5 µM): 21.0 ± 2.6 nmol O2 (µmol IU CS Activity)^−1
- Oxygen flux, +Oligomycin ([5]; IPC hearts, peptide 50 µM): 44.2 ± 7.5 nmol O2 (µmol IU CS Activity)^−1
- Oxygen flux, +ADP 50 µM ([5]; IPC hearts, peptide 50 µM): 76.8 ± 21.6 nmol O2 (µmol IU CS Activity)^−1
- Oxygen flux, Glutamate + Maleate ([5]; IPC hearts, peptide 50 µM): 19.6 ± 6.1 nmol O2 (µmol IU CS Activity)^−1
- Oxygen flux, OXPHOS Saturating +ADP 2.5 mM ([5]; IPC hearts, peptide 50 µM): 116.2 ± 37.7 nmol O2 (µmol IU CS Activity)^−1
- Oxygen flux, State 4 (LEAK ATP) ([5]; IPC hearts, peptide 50 µM): 24.0 ± 6.1 nmol O2 (µmol IU CS Activity)^−1
- Oxygen flux, +Oligomycin [5, 6]: 42.8 ± 4.5 nmol O2 (µmol IU CS Activity)^−1
- Oxygen flux, +ADP 50 µM [5, 6]: 68.9 ± 6.5 nmol O2 (µmol IU CS Activity)^−1
- Oxygen flux, Glutamate + Maleate [5, 6]: 16.6 ± 5.0 nmol O2 (µmol IU CS Activity)^−1
- Oxygen flux, OXPHOS Saturating +ADP 2.5 mM [5, 6]: 89.2 ± 35.6 nmol O2 (µmol IU CS Activity)^−1
- Oxygen flux, State 4 (LEAK ATP) [5, 6]: 23.8 ± 5.2 nmol O2 (µmol IU CS Activity)^−1
- Oxygen flux, +Oligomycin [5, 7]: 43.5 ± 2.6 nmol O2 (µmol IU CS Activity)^−1
- Oxygen flux, +ADP 50 µM [5, 7]: 75.1 ± 11.3 nmol O2 (µmol IU CS Activity)^−1
- Oxygen flux, Glutamate + Maleate [5, 7]: 16.6 ± 2.6 nmol O2 (µmol IU CS Activity)^−1
- Oxygen flux, OXPHOS Saturating +ADP 2.5 mM [5, 7]: 113.7 ± 12.9 nmol O2 (µmol IU CS Activity)^−1
- Oxygen flux, State 4 (LEAK ATP) [5, 7]: 22.1 ± 1.6 nmol O2 (µmol IU CS Activity)^−1
- Oxygen flux, +Oligomycin [5, 8]: 44.6 ± 5.1 nmol O2 (µmol IU CS Activity)^−1
- Oxygen flux, +ADP 50 µM [5, 8]: 78.9 ± 14.0 nmol O2 (µmol IU CS Activity)^−1
- Oxygen flux, Glutamate + Maleate [5, 8]: 18.2 ± 0.9 nmol O2 (µmol IU CS Activity)^−1
- Oxygen flux, OXPHOS Saturating +ADP 2.5 mM [5, 8]: 115.3 ± 8.7 nmol O2 (µmol IU CS Activity)^−1
- Oxygen flux, State 4 (LEAK ATP) [5, 8]: 24.8 ± 3.0 nmol O2 (µmol IU CS Activity)^−1
